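Test compounds were applied to cells in 96-well plates for 48 hours at 5 doses. GI50 marks 50% less growth.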 Calls of active or inactive are those of the source. Rule as the data show it: active = GI50 up to about 1.1 µM and inactive = higher.

Holding throughout (experiment): inhibition of tumour cell growth, NCI panel, 48 h
Test [1] concerns 786-0.
The subject of test [2] is A549.
The test system of test [3] is DLD-1.
The subject of test [4] is HCT-15.
For test [5], the system named is HT-29.
The test system of test [6] is LOX IMVI.
For test [7], the system named is LXFL 529.
The test system of test [8] is M19-MEL.
In test [9] the test system is SF-268.
Test [10] concerns SF-295.
The subject of test [11] is UACC-62.
Test [12] relates to KM12.
In test [13] the test system is OVCAR-4.
Test [14] has as its system SK-OV-3.
The subject of test [15] is OVCAR-5.
For test [16], the system named is HOP-18.
The subject of test [17] is BT-549.
Test [18] has as its system DU-145.
The test system of test [19] is MDA-MB-435.
Test [20] deals with PC-3.

For the compound `COc1c(C)cc2c(c1O)C1C3[C@H]4SC[C@@]5(NCCC6=C5NC5C=CC=CC65)C(=O)OCC(c5c6c(c(C)c(OC(C)=O)c54)OCO6)N3[C@@H](O)C(C2)N1C` (some centres not stated), the GI50 in test [1] was < 0.01 µM (active); in test [2] it was < 0.01 µM (active); in test [3] it was < 0.01 µM (active); in test [4], < 0.01 µM; in test [5], < 0.01 µM (active); in [6] it was < 0.01 µM (active). In addition, the GI50 in [7], in test [8], in [9], in test [10] and in test [11] was < 0.01 µM (active) in each case.
For `COCC1C(=O)c2cc3c(cc2C12C=CC1(C=C2)OCCO1)OCO3` (configuration not stated), the GI50 in [1] is 2.13 µM (inactive); in [2], 15.4 µM (inactive); in [3], 2.22 µM (inactive); in [4], 1.6 µM; in [5], 3.94 µM (inactive); in test [12], 4.57 µM (inactive). Also, the GI50 in [7] is 2.49 µM (inactive); in test [8] it was 2.93 µM (inactive); in [13], 14.2 µM (inactive); in test [9], 3.86 µM (inactive); in test [10], 14.4 µM (inactive); in test [14], 16.1 µM (inactive). Besides, the GI50 in test [11] is 12.2 µM (inactive).
Take `CCOC1=NC(=O)CC(c2ccccc2)S1` (configuration not stated): the GI50 in [1] was > 100 µM (inactive); in test [2], > 100 µM (inactive); in [3], 95.5 µM (inactive); in test [4] it was > 100 µM; in test [5], > 100 µM (inactive); in test [12] it was > 100 µM (inactive). Further, the GI50 in test [6], in test [7], in test [8], in test [13], in [15] and in test [9] was > 100 µM (inactive) each time. Moreover, the GI50 in test [10] and in test [11] was > 100 µM (inactive) in each case.
Turning to `Cc1cc(Br)cc(C)c1NC(=O)C(=O)C(C(=O)c1ccncc1)C1OC(=O)c2ccccc21` (configuration not stated), the GI50 in test [1] was > 100 µM (inactive); in test [2] it was > 100 µM (inactive); in test [3] it was > 100 µM (inactive); in test [4] it was > 100 µM; in test [16], > 100 µM (inactive); in [12], > 100 µM (inactive). The GI50 in [6], in test [7], in [13], in [15], in [9] and in [14] was > 100 µM (inactive) in each case. Also, in test [11], the GI50 is > 100 µM (inactive).
In the case of `CC[C@@]1(O)CC(OC2CC(N3CCOCC3)C(O)C(C)O2)c2c(O)c3c(c(O)c2[C@H]1O)C(=O)c1cccc(O)c1C3=O` (some centres not stated), the GI50 in test [1] was 0.0407 µM (active); in [2] it was 0.0267 µM (active); in [17], 0.0508 µM (active); in test [3] it was 0.143 µM (active); in test [18] it was 0.084 µM (active); in test [4], 0.0573 µM. The GI50 in test [16] was 0.237 µM (active); in [5], 0.0902 µM (active); in test [12] it was 0.182 µM (active); in test [6], 0.0644 µM (active); in [8], 0.101 µM (active); in [19] it was 0.304 µM (active). Besides, the GI50 is 0.231 µM (active) in test [13]; 0.371 µM (active) in [15]; 0.0957 µM (active) in [20]; 0.122 µM (active) in [9]; 0.0575 µM (active) in test [10]; 0.126 µM (active) in test [14]. Also, in test [11], the GI50 was 0.0667 µM (active).
Regarding `CCCCCCC(=O)OC[n+]1ccc2c(C)c3[nH]c4ccccc4c3c(C)c2c1`, the GI50 in test [1] is 0.418 µM (active); in test [2], 0.474 µM (active); in [3], 0.4 µM (active); in test [4] it was 0.348 µM; in [5], 0.347 µM (active); in test [6], 0.537 µM (active). In addition, the GI50 in [7] is 0.785 µM (active); in test [8] it was 1.04 µM (active); in test [13], 1.06 µM (active); in test [15], 1.71 µM (inactive); in [9], 0.61 µM (active); in test [10], 0.836 µM (active). Moreover, the GI50 was 1.83 µM (inactive) in test [14] and 2.72 µM (inactive) in test [11].
With `O=C(/C(=C\c1ccc(Cl)cc1)c1ccccc1)c1ccccc1`, the GI50 in [1] is 79.8 µM (inactive); in test [3], 93.5 µM (inactive); in test [4], 90.4 µM; in [16], > 100 µM (inactive); in [5] it was 43.8 µM (inactive); in test [12], 22 µM (inactive). Further, the GI50 in [6] was 29.9 µM (inactive); in test [7] it was 55.5 µM (inactive); in test [13], 26.3 µM (inactive); in test [15], 22.7 µM (inactive); in test [9], > 100 µM (inactive); in [10], 94.4 µM (inactive). The GI50 in test [14] and in [11] was > 100 µM (inactive) in each case.
With `Cc1cc(C)nc(NS(=O)(=O)c2ccc(Nc3c4ccccc4nc4c(C(=O)NCCN(C)C)ccc(Cl)c34)cc2)n1`, the GI50 in test [1] was 3.73 µM (inactive); in test [2] it was 0.942 µM (active); in test [3], 3.03 µM (inactive); in test [4], 2.78 µM; in test [5], 0.659 µM (active); in test [12] it was 1.7 µM (inactive). Moreover, the GI50 in test [6] is 0.711 µM (active); in [7], 1.11 µM (active); in [8], 2.05 µM (inactive); in test [13], 1.1 µM (active); in [15] it was 4.7 µM (inactive); in test [9], 1.51 µM (inactive). Besides, the GI50 in test [10] was 1.45 µM (inactive); in [11] it was 1.74 µM (inactive).
For the compound `COCN1COCN(C)C1=O`, the GI50 in test [1] is > 100 µM (inactive); in test [2], > 100 µM (inactive); in [3], > 100 µM (inactive); in test [4], > 100 µM; in test [16], > 100 µM (inactive); in test [5], > 100 µM (inactive). In addition, the GI50 in [12], in test [6], in test [8], in [13], in test [15] and in [9] was > 100 µM (inactive) each time. Further, the GI50 in [10], in test [14] and in [11] was > 100 µM (inactive) in each case.
For `COC(=O)/C(C#N)=C1\CCC(Nc2cccc(C(F)(F)F)c2)N1C` (configuration not stated), the GI50 in test [1] was > 100 µM (inactive); in test [2], > 100 µM (inactive); in [3], 57.5 µM (inactive); in test [16] it was > 100 µM (inactive); in [5], > 100 µM (inactive); in test [12], 59.6 µM (inactive). In addition, the GI50 in [6] was > 100 µM (inactive); in test [7], 74 µM (inactive); in test [13], > 100 µM (inactive); in [15] it was > 100 µM (inactive); in test [9] it was > 100 µM (inactive); in test [10], > 100 µM (inactive). Moreover, the GI50 in test [14] is 84.3 µM (inactive); in test [11] it was 61 µM (inactive).
In the case of `N/N=c1/nc2n(c3ncccc13)C=CNN2`, the GI50 is > 100 µM (inactive) in test [1]; > 100 µM (inactive) in test [2]; > 100 µM (inactive) in [3]; > 100 µM in test [4]; > 100 µM (inactive) in test [5]; > 100 µM (inactive) in test [12]. The GI50 in test [6], in [7], in test [15], in [9], in test [10] and in [14] was > 100 µM (inactive) each time. Also, the GI50 in test [11] is > 100 µM (inactive).
`CCCCCCCCCC(=O)NC(Cc1ccc(O)cc1)C(=O)NCCCNCCCCNCCCNC(=O)[C@@H](N)CCCN=C(N)N` (some centres not stated): the GI50 was 61.7 µM (inactive) in test [1]; 76 µM (inactive) in test [2]; 86.7 µM in test [4]; > 100 µM (inactive) in [5]; 20.9 µM (inactive) in test [12]; 84.1 µM (inactive) in test [6]. Moreover, the GI50 in test [7] is 77.3 µM (inactive); in [8], 50.2 µM (inactive); in test [9] it was 82.2 µM (inactive); in test [10], 29 µM (inactive); in test [14], 36.6 µM (inactive).
Take `O=S(=O)(O)C(CO)c1ccccc1.O=S(=O)(O)Cc1ccccc1` (configuration not stated): the GI50 in test [1] was > 100 µM (inactive); in test [2], > 100 µM (inactive); in test [17], > 100 µM (inactive); in [18], > 100 µM (inactive); in test [4], > 100 µM; in test [5] it was > 100 µM (inactive). Moreover, the GI50 in test [12], in [6], in [19], in [13], in [15] and in test [20] was > 100 µM (inactive) each time. The GI50 in test [9], in test [10], in [14] and in test [11] was > 100 µM (inactive) throughout.
Take `COC1(OC)C[C@H](C)[C@@]23O[C@]24C2=CC(=O)C=CC2=N[C@H]3C#C/C=C\C#C[C@]14O`: the GI50 in [1] was 0.0675 µM (active); in [2], 0.71 µM (active); in [17], 1 µM (active); in test [18], 1.04 µM (active); in test [4], 0.432 µM; in [5], 0.266 µM (active). Also, the GI50 in test [12] was 0.474 µM (active); in test [6], 0.3 µM (active); in test [19], 0.546 µM (active); in [13], 0.501 µM (active); in test [15], 0.39 µM (active); in test [20], 0.753 µM (active). Further, the GI50 is 0.711 µM (active) in [9], 1.64 µM (inactive) in test [10], 1.36 µM (inactive) in test [14] and 1.19 µM (inactive) in test [11].

(Values after ChEMBL document CHEMBL1201862, “PubChem BioAssay data set” (2004).)
